We go through two compounds from patent US4530837A, “Peptide derivatives, their preparation process and their pharmaceutical use” (Commissariat a l'Energie Atomique, priority 1982, dated 1985).

Experiment [1] deals with hydrochloric acid secretion stimulated by histamine. Briefly: inhibition of secretion plateau stimulated by histamine in anesthetized perfused-stomach rats. The format is in vivo, rat. Particulars: 150 nmol/kg i.v., histamine 13.5 μmol/kg/h. The procedure: (§1) For the purpose of these tests, use was made of male Wistar rats weighing 300±25 g. The rats were not allowed to take solid food for 18 hours, but were allowed to drink water freely. They were then anesthesized with urethane (1.25 g/kg) by the intramuscular route. The temperature of the rats was maintained at 34° C. by means of lamps, approximately 60 cm away from them. A polyethylene catheter was introduced into the esophagus up to the level of the cardia and a second catheter for collecting the stomach secretion at the duodenum. After washing the stomach, the latter was continuously perfused with a 0.9% sodium chloride solution, at a flow rate of 1 ml/min, using a peristaltic pump connected to the catheter of the esophagus.
(§2) After a period of stabilizing the system lasting approximately 90 minutes after the operation, the compounds which it was wished to study were injected intravenously into the vein of the penis and the gastric secretion was collected by fractions taken every 20 minutes, the interval between these injections being min 90 minutes. The acidity of the sample fractions was dosed by means of a 0.01N sodium solution at the phenolphthalein colour change.
In this case, use is made of the same operating procedure as in the second group of experiments, by stimulating the secretion by histamine. In this case, a higher histamine dose (13.5 μmol/kg/h) is injected.

Experiment [2] concerns hydrochloric acid secretion. As to the kind of experiment: hydrochloric acid secretion in anesthetized rats with perfused stomach (Ghosh and Schild, modified by Lai): agonist effect. Particulars: intravenous injection, male Wistar rats. The format is in vivo, rat. As for the experimental part: as §1, §2

The structures appear in SMILES notation.

As for `CN/C(=N\CCSCc1nc[nH]c1C)NC#N` [cimetidine], in experiment [1], the “duration of inhibition of the histamine response” value is reported as “approximately 3 h” and the “inhibition of the histamine response (intensity)” value is “approximately 55%”. The “maximum inhibition percentage (mean ± ESM)” value in experiment [1] (group of 4 rats) is on record as 54.4±2.7%.

As for `CSCC[C@H](NC(=O)[C@H](Cc1c[nH]c2ccccc12)NC(=O)CCNC(=O)OC(C)(C)C)C(=O)N[C@@H](CC(=O)O)C(=O)N[C@@H](Cc1ccccc1)C(N)=O` [pentagastrin, Boc-βAla-Trp-Met-Asp-Phe-NH2], in experiment [2], the “dose from which activity on hydrochloric acid secretion is maximum” value is ≥ 20 nmol/kg.
